Read-outs that look alike come from different tables or passages of the source.
Assays:
corn rootworm = assay: Mite/insect screen, CRW; assay type: in vivo; conditions: percent mortality; CRW RATE 12.00 PPM; read-out: CRW RESULTS %
Procedure, shortened: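 Each compound, taken up in an emulsifier-containing acetone/alcohol mixture and diluted in water to the stated concentrations, was assessed for percent kill following standard exposure times.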

[1] = tested on: Pyricularia oryzae (rice blast); assay: whole plant or invertebrate; assay type: in vivo; conditions: for RICE BLAST: disease control rating, foliar spray on rice, 400 ppm (+++ at 100 ppm)
[2] = tested on: Botrytis cinerea (gray mold); assay: Test 1 greenhouse foliar spray screen, gray mold on grape berries; assay type: in vivo; conditions: disease control rating, spray on grape berries, 400 ppm (+++ at 100 ppm)
Phytophthora infestans = assay type: in vivo; conditions: field test
[3] = tested on: melon aphids (Aphis gossypii Glover); assay: Mite/insect screen, MA; assay type: in vivo; conditions: Aphis gossypii, percent mortality; SAW, SM & MA RATE 200 PPM; read-out: MA RESULTS %
Procedure, shortened: (§1)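 Activity is expressed as percent mortality at the indicated spray concentrations. Plants are sprayed to runoff on upper and lower leaf surfaces with aqueous dilutions of an acetone/alcohol emulsifiable formulation, then dried for one hour.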

[4] = tested on: Puccinia recondita tritici (leaf rust); assay: Test 1 greenhouse foliar spray screen, leaf rust on wheat; assay type: in vivo; conditions: disease control rating, foliar spray on wheat, 400 ppm (+++ at 100 ppm)
CUCURBIT POWDERY MILDEW = assay: Greenhouse combination test with known fungicide, foliar spray; conditions: 1-9 rating scale, time 4 hours
Procedure: (§3) The test compounds were formulated for application by dissolving 50 mg of the compound into 1.25 ml of solvent. The solvent was prepared by mixing 50 ml of "Tween 20" with 475 ml of acetone and 475 ml of ethanol. The solvent/compound solution was diluted to 125 ml with deionized water. The resulting formulation contains 400 ppm test chemical. Lower concentrations were obtained by serial dilution with the solvent-surfactant mixture.
(§4) The formulated technical compounds were sprayed on all foliar surfaces of the host plants (or cut berry) to past run-off. Single pots of each host plant were placed on raised, revolving pedestals in a fume hood. Test solutions were sprayed on all foliar surfaces. All treatments were allowed to dry and the plants were inoculated with the appropriate pathogens within 2-4 hours.
(§5) In the tables, the time given under "Time in hours" is the number of hours elapsing between treatment and inoculation. […] In such cases, curative activity was being tested. […] In such cases, residual or protectant activity was tested. […] The results were evaluated on a 1-9 rating scale. These ratings represent the following percent disease control: 1 = 0-19%, 2 = 20-29%, 3 = 30-39%, 4 = 40-59%, 5 = 60-74%, 6 = 75-89%, 7 = 90-96%, 8 = 97-99%, and 9 = 100%.

[5] = tested on: southern armyworm (Spodopetra eridania Cramer); assay: Mite/insect screen, SAW; assay type: in vivo; conditions: Spodoptera eridania, percent mortality; SAW, SM & MA RATE 200 PPM; read-out: SAW RESULTS %
Procedure, shortened: as §1

CUCURBIT DOWNY MILDEW = assay: Greenhouse combination test with known fungicide, foliar spray; conditions: 1-9 rating scale
Procedure: as §3, §4, §5

[6] = tested on: Twospotted spider mites (Tetranychus urticae Koch); assay: Mite/insect screen, SM; assay type: in vivo; conditions: Tetranychus urticae, percent mortality; SAW, SM & MA RATE 200 PPM; read-out: SM RESULTS %
Procedure, shortened: as §1

[7] = tested on: Venturia inaequalis (apple scab); assay: Test 1 greenhouse foliar spray screen, apple scab on apple seedling; assay type: in vivo; conditions: disease control rating, foliar spray on apple seedling, 400 ppm (+++ at 100 ppm)
[8] = tested on: Pseudoperonospora cubensis (downy mildew); assay: Test 1 greenhouse foliar spray screen, downy mildew on squash; assay type: in vivo; conditions: for DOWN MDEW: disease control rating, foliar spray on squash, 400 ppm (+++ at 100 ppm); for activity against downy mildew: summary statement in the description
[9] = tested on: Erysiphe graminis tritici (powdery mildew); assay: Test 1 greenhouse foliar spray screen, powdery mildew on wheat; assay type: in vivo; conditions: disease control rating, foliar spray on wheat, 400 ppm (+++ at 100 ppm)
Plasmopara viticola = assay: Field tests against plant pathogens; assay type: in vivo; conditions: field test, crop grape
Excerpt: (§2) Selected compounds were field tested against a variety of plant pathogens. […]

Alternaria brassica = assay: Field tests against plant pathogens; assay type: in vivo; conditions: field test, crop rape
Excerpt: as §2

Sphaerotheca fuliginea = assay: Field tests against plant pathogens; assay type: in vivo; conditions: field test, crop cucumber
Excerpt: as §2

Rhynchosporium secalis = assay: Field tests against plant pathogens; assay type: in vivo; conditions: field test, crop barley
Excerpt: as §2

Pyrenophora teres = assay: Field tests against plant pathogens; assay type: in vivo; conditions: field test, crop barley
Excerpt: as §2

[10] = tested on: Septoria tritici (leaf blotch); assay: Test 1 greenhouse foliar spray screen, leaf blotch on wheat; assay type: in vivo; conditions: disease control rating, foliar spray on wheat, 400 ppm (+++ at 100 ppm)
[11] = tested on: Cercospora beticola (leaf spot); assay: Test 1 greenhouse foliar spray screen, leaf spot on sugar beet; assay type: in vivo; conditions: disease control rating, foliar spray on sugar beet, 400 ppm (+++ at 100 ppm)
Puccinia recondita = assay: Field tests against plant pathogens; assay type: in vivo; conditions: field test, crop wheat
Excerpt: as §2

SMILES: Fc1cccc2c(NCCc3ccccc3)ccnc12 [Example 5, 8-fluoro-N-(2-phenylethyl)-4-quinolinamine]
- mortality at 12 ppm (corn rootworm): 0%
- RICE BLAST [1]: ++ (90-100% control at 400 ppm)
- activity against rice blast ([1]; summary statement in the description): particularly excellent activity
- GRAY MOLD [2]: - (0-19% control at 400 ppm)
- pathogens against which compounds of the invention showed activity (Phytophthora infestans; crop potato): Phytophthora infestans
- pathogens against which compounds of the invention showed activity (Phytophthora infestans; crop tomato): Phytophthora infestans
- mortality at 200 ppm [3]: 0%
- LEAF RUST [4]: +++ (90-100% control at 100 ppm)
- RESULTS (CUCURBIT POWDERY MILDEW; Ex. 5 alone 6.00 ppm): 1.0
- RESULTS (CUCURBIT POWDERY MILDEW; Ex. 5 alone 12.00 ppm): 1.0
- RESULTS (CUCURBIT POWDERY MILDEW; Ex. 5 alone 24.00 ppm): 5.0
- RESULTS (CUCURBIT POWDERY MILDEW; Ex. 5 alone 48.00 ppm): 6.0
- mortality at 200 ppm [5]: 0%
- RESULTS (CUCURBIT DOWNY MILDEW; Ex. 5 alone 6.00 ppm, time 4 hours): 1.0
- RESULTS (CUCURBIT DOWNY MILDEW; Ex. 5 alone 12.00 ppm, time 4 hours): 7.0
- RESULTS (CUCURBIT DOWNY MILDEW; Ex. 5 alone 24.00 ppm, time 4 hours): 7.5
- RESULTS (CUCURBIT DOWNY MILDEW; Ex. 5 alone 48.00 ppm, time 4 hours (treatment before inoculation)): 8.0
- mortality at 200 ppm [6]: 0%
- APPL SCAB [7]: - (0-19% control at 400 ppm)
- DOWN MDEW [8]: +++ (90-100% control at 100 ppm)
- activity against downy mildew [8]: particularly excellent activity
- POWD MDEW [9]: ++ (90-100% control at 400 ppm)
- pathogens against which compounds of the invention showed activity (Plasmopara viticola): Plasmopara viticola
- pathogens against which compounds of the invention showed activity (Alternaria brassica): Alternaria brassica
- pathogens against which compounds of the invention showed activity (Sphaerotheca fuliginea): Sphaerotheca fuliginea
- pathogens against which compounds of the invention showed activity (Rhynchosporium secalis): Rhynchosporium secalis
- pathogens against which compounds of the invention showed activity (Pyrenophora teres): Pyrenophora teres
- LEAF BLOT [10]: +++ (90-100% control at 100 ppm)

SMILES: Fc1cccc2c(NCCc3ccc4ccccc4c3)ccnc12 [Example 159, 8-fluoro-N-[2-(2-naphthyl)ethyl]-4-quinolinamine]
- mortality at 12 ppm (corn rootworm): 0%
- RICE BLAST [1]: +++ (90-100% control at 100 ppm)
- GRAY MOLD [2]: - (0-19% control at 400 ppm)
- mortality at 200 ppm [3]: 0%
- LEAF RUST [4]: +++ (90-100% control at 100 ppm)
- mortality at 200 ppm [5]: 0%
- mortality at 200 ppm [6]: 0%
- LEAF SPOT [11]: + (20-89% control at 400 ppm)
- APPL SCAB [7]: - (0-19% control at 400 ppm)
- DOWN MDEW [8]: +++ (90-100% control at 100 ppm)
- activity against downy mildew [8]: particularly excellent activity
- POWD MDEW [9]: ++ (90-100% control at 400 ppm)
- pathogens against which compounds of the invention showed activity (Plasmopara viticola): Plasmopara viticola
- pathogens against which compounds of the invention showed activity (Puccinia recondita): Puccinia recondita
- pathogens against which compounds of the invention showed activity (Rhynchosporium secalis): Rhynchosporium secalis
- LEAF BLOT [10]: +++ (90-100% control at 100 ppm)

Source: patent EP0326331B1, “Substituted quinolines and cinnolines” (Dow AgroSciences LLC, priority 1988, dated 1989)
